# In US5389613A, “Method of treating prostate adenocarcinoma, prostate benign hypertrophia and endometriosis” (Roussel Uclaf, priority 1979, dated 1995):
# “Also recorded” adds a separate entry of the source.
# Assays:
# [1] = system: testicular steroidogensis; test: Inhibitory activity against testicular steroidogenesis in men in good health (seric LH, FSH and steroids by radioimmunoassay); format: in vivo
# Protocol: The said product was administered intranasally at a dose of 500 μg in a few drops of distilled water at 8 A.M. on the third day of the test. For 2 days prior to the treatment and for 6 days after the treatment, samples of blood were taken daily at 8 A.M., 3 P.M. and 10 P.M. On the day of administration of the LH-RH agonist, blood samples were taken at 11 A.M. and 6 P.M.
# The seric concentrations of LH and FSH were measured by radioimmuno-logic dosages with double antibodies and the antibodies for measuring LH and FSH were furnished by the National Pituitary Agency of N.I.H. in Bethesda, Md. The seric concentrations of steroids was measured by radioimmuno-logic dosages in which one ml of serum was extracted with ether and the steroids were separated on a LH-20 column before measuring with radioimmuno-logic dosages. The radioimmuno-logic dosage results were determined by a program derived from model II of Rodbard et al [Second Karolinska Symposium on Research Methods in Reproductive Endroerinology, Diczfalusky Editor, Copenhague (1970), p. 79-103]. The statistical significance was determined by the "multiple level test" of Duncan-Kramer [Kramer, Biometrics, Vol 12 (1956), p. 307]. The results are shown in the graphs on sheet 1 of the Figures filed herewith.
# [2] = system: testicular steriodogenosis; test: Inhibitory activity on testicular steroidogenesis in a patient with prostate cancer (plasmatic steroids); format: in vivo, human; conditions: 500 μg intranasally twice a day
# From the text: The results are reported in the graphs of sheet 2 of the Figures.
# ovarian steroidogenosis = test: Inhibitory activity on ovarian steroidogenesis in women (seric LH, FSH, progesterone, estradiol); format: in vivo; conditions: for reduction of seric levels of progesterone compared to the controls: typical subject (sheet 3), 500 μg intranasal at 8 A.M. and 5 P.M.
# Protocol: The study was conducted for 6 consecutive cycles consisting of 2 pretreatment cycles, 2 treatment cycles and 2 post-treatment cycles. […] Daily blood samples were taken between 4 and 6 P.M. to measure seric levels of LH, FSH, progesterone and estradiol which were determined by radioimmuno-logic tests with double antibodies. The antibodies to measure LH and FSH were furnished by the National Pituitory Agency of N.I.H. of Bethesda, Md.
# Estradiol and progesterone were measured with highly specific antibodies developed against 7-(0-carboxymethyl)-oxime of estradiol and 12-(0-carboxymethyl)-oxime of progesterone, respectively [3H] 17β-estradiol and ^125 I-progesterone -12-[0-carboxymethyl)-oxime] used as tracers. The serum was extracted with benzene and the steroids were separated with a LH-20 column before the determination. The radioimmunological results were exploited by the program derived from model II of Rodbard and Lewald as in Example 1 and the statistical significance was measured by the multiple level test of Ducan-Kramer of Example 1. The results are shown in the graphs of sheets 3 to 5 of the Figures.
# [3] = intranasal 500 μg, men, 3rd day following administration
compound,measurement,setting,value
"CCNC(=O)[C@@H]1CCCN1C(=O)[C@H](CCCNC(=N)N)NC(=O)[C@H](CC(C)C)NC(=O)[C@@H](COC(C)(C)C)NC(=O)[C@H](Cc1ccc(O)cc1)NC(=O)[C@H](CO)NC(=O)[C@H](Cc1c[nH]c2ccccc12)NC(=O)[C@H](Cc1c[nH]cn1)NC(=O)[C@@H]1CCC(=O)N1 [D Ser (Tbu)^6 of Gly^10 LH-RH ethylamide, [D Ser (Tbu)^6 des.Gly NH2^10] LH-RH ethylamide]",effect on testicular steroidogenesis in man,"[1]; intranasal 500 μg, men",inhibition of testicular steroidogenesis
same,seric concentration of 17-OH-progesterone relative to initial control values,[1]; [3],40%
same,seric concentration of testosterone relative to initial control values,[1]; [3],50%
same,LH and FSH plasmatic levels,"[1]; intranasal 500 μg, men, day of administration",increase
same,"seric concentration of pregnenolone, 17-OH-pregnenolone, progesterone, 17-OH-progesterone, Δ5-androstene-3β,17β-diol and testosterone","[1]; intranasal 500 μg, men, on the day of treatment",increased
same,level of testosterone/steroids on the fourth day after administration,"[1]; single intranasal dose of 500 μg, fourth day after administration",returned to normal; also recorded: return to normal levels
same,duration of the drop of seric levels of testicular steroids (testosterone and its precursors),"[1]; single intranasal dose of 500 μg, human",3 days
same,androgenic steroids (plasmatic),[2],diminution
same,level of testosterone,[2]; two weeks of treatment,stabilized at a very low level
same,"level of progesterone, pretreatment cycles as base of 100%",ovarian steroidogenosis; 12 cycles of post-treatment,99%
same,"level of progesterone, pretreatment cycles as base of 100%",ovarian steroidogenosis; 12 cycles of treatment,46%
same,level of progesterone reduced as compared to the controls,"ovarian steroidogenosis; 12 cycles of treatment (sheet 5), scale 13 to 127%",46%
same,reduction of seric levels of progesterone compared to the controls,ovarian steroidogenosis; first cycle of treatment,13%
same,reduction of seric levels of progesterone compared to the controls,ovarian steroidogenosis; second cycle of treatment,34%
